Source: publication PMC3514216, “SRC Homology 2 Domain Binding Sites in Insulin, IGF-1 and FGF receptor mediated signaling networks reveal an extensive potential interactome” (Cell Communication and Signaling : CCS, 2012)

Experiments:
panel of 50 SH2 domains = assay: SPOT peptide array probed with each of 50 GST-SH2 domains; type: binding; details: SH2 domains with intensity >3X array mean; GST-SH2 0.25 μM, 1 mM DTT
How it was run: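 Membrane SPOT arrays of 192 phosphotyrosine 11-mer peptides (four residues N-terminal, six C-terminal to pTyr) probed with GST-SH2 fusions, detected by anti-GST plus near-infrared secondary antibody. Spots >3-fold array mean scored positive, below mean negative, 1–3× indeterminate; peptides binding GST alone above mean in two of three trials flagged as sticky.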

Plcγ-C SH2 domain = assay: SPOT peptide array; type: binding; details: GST-SH2 0.25 μM; for Array positive: membrane-bound peptide, 1 mM DTT, LiCor read-out
Description: (§1) The use of addressable peptide arrays is a reproducible and semi-quantitative approach that has been extensively validated for studying protein interactions with peptide ligands. To investigate connections between SH2 domain proteins and their putative phosphorylated docking sites on cell surface receptors, we developed addressable arrays consisting of 192 phosphotyrosine peptides. This peptide set was assembled using 71 phosphotyrosine peptide motifs corresponding to all of the cytoplasmic tyrosine residues within the FGF receptors (FGFR1-4), insulin receptor (InsR) and IGF-1 receptor (IGF-1R) (Figure 1A). Activation of these receptors results in the phosphorylation of associated scaffold proteins, and so 75 phosphotyrosine peptides corresponding to a comprehensive list of tyrosine residues within insulin receptor substrates (IRS-1 and IRS-2) and fibroblast receptor substrates (FRS-2 and FRS-3) were included. In addition, 33 phosphotyrosine peptides were incorporated from the downstream signaling proteins PLC-γ1, p130Cas (BCAR1) and p62DOK1. […] These control peptides provide a reference and establish the empirical cut-off for designated binding interactions (Table 1). No discrimination was made against peptides on the basis of reported phosphorylation state in order to examine a diverse and unbiased set of motifs. The resulting set of 192 phosphotyrosine peptides and their corresponding position in the proteins of origin is noted in Additional file 1: Table S1. Addressable arrays were synthesized as membrane-bound 11-mer peptides using the SPOT synthesis technique. While the majority of SH2 domains recognize residues C-terminal to the phosphotyrosine in their cognate peptide ligands, additional contacts between SH2 domains and residues N-terminal to the phosphotyrosine are observed for the SH2 domain of Sh2d1a (SAP) and cannot be ruled out in other cases. Peptides were synthesized with six flanking residues C-terminal to the phosphotyrosine and four residues N-terminal to the phosphotyrosine.
(§2) SH2 domains were arrayed as GST fusion proteins and detected using anti-GST primary antibodies and near-infrared labeled secondary antibodies. In an effort to present a dataset with minimal false positives, we chose an empirical cutoff based on the array average across all peptide spots to classify interactions (Figure 1A). In cases where the intensity of the signal for an individual SH2-domain binding event exceeded the mean intensity of all the peptides on the membrane by three-fold were scored as “array positives” [22]. Non-binding was judged in cases where the intensity of a spot was less than the mean intensity of all spots on the membrane and these were scored as “array negatives”. Peptides with signal intensities between 1X and 3X mean were scored as “indeterminate” and ascribed as neither array positive binding interactions nor array-negative non-binders. […] This signature may be indicative of promiscuity differences between phosphopeptides or there may be a subset of peptides which interact in a nonspecific fashion with either the GST fusion tag or one of the antibodies used for detection, resulting in false positives. Consistent with our goal of reducing the errors associated with identifying false-positives, we probed three separate arrays with three separate preps of the GST fusion tag alone. Potentially non-specificly interacting peptides (so-called ‘sticky’ peptides) were identified as any that bound to GST with above mean intensity in two out of three separate trials. This approach identifies any peptides which interact with GST or either of the recognition antibodies, a known confounding factor for downstream analysis. This conservative approach allows us to score many significant peptides as ‘binders’ which may have been indeterminate before when incorporating the ‘sticky’ peptides into the array average. […]

Crk SH2 domain = Crk SH2 domain (Homo sapiens, UniProt P46108); assay: SPOT peptide array; type: binding; details: GST-SH2 0.25 μM, membrane-bound peptide, 1 mM DTT, LiCor read-out
Crk SH2 domain, sequence (P46108 13-118 limits assumed): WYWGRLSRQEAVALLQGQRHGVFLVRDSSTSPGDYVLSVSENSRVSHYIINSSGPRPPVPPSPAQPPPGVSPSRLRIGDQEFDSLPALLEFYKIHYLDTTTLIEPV
Description: as §1, §2

Grb2 SH2 domain = Grb2 SH2 domain (Homo sapiens, UniProt P62993); assay: SPOT peptide array; type: binding; details: GST-SH2 0.25 μM, membrane-bound peptide, 1 mM DTT, LiCor read-out
Grb2 SH2 domain, sequence (P62993 60-152 limits assumed): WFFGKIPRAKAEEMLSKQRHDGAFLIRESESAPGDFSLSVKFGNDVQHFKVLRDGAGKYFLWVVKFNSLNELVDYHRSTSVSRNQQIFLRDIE
Description: as §1, §2

Nck1 SH2 domain = Nck1 SH2 domain (Homo sapiens, UniProt P16333); assay: SPOT peptide array; type: binding; details: GST-SH2 0.25 μM; for Array positive: membrane-bound peptide, 1 mM DTT, LiCor read-out
Description: as §1, §2

Ptpn11_N SH2 domain [1] = biological target: T1, Ptpn11_N SH2 domain (Homo sapiens, UniProt Q06124); set-up: method as in 5 sources, one per row (each row's own in cited_ref): ref [107] = [107]; PMID 8144631; Case RD Piccione E Wolf G Benett AM Lechleider RJ Neel BG Shoelson SE SH-PTP2/Syp SH2 domain binding specificity is defined by direct interactions with platelet-derived growth factor beta-receptor, ep ||| ref [107, 108] = [107]; PMID 8144631; Case RD Piccione E Wolf G Benett AM Lechleider RJ Neel BG Shoelson SE SH-PTP2/Syp SH2 domain binding specificity is defined by direct interactions with platelet-derived growth factor beta-receptor, ep || [108]; PMID 7504175; doi:10.1128/mcb.13.12.7418-7428.1993; Sun XJ Crimmins DL Myers MG Jr Miralpeix M White MF Pleiotropic insulin signals are engaged by multisite phosphorylation of IRS-1 Mol Cell Biol 1993 13 7418 7428 7504175 10.1128/mcb.13.12.7418-7428.19 ||| ref [95, 108, 110] = [95]; PMID 9422724; doi:10.1074/jbc.273.2.729; Ottinger EA Botfield MC Shoelson SE Tandem SH2 domains confer high specificity in tyrosine kinase signaling J Biol Chem 1998 273 729 735 9422724 10.1074/jbc.273.2.729 || [108]; PMID 7504175; doi:10.1128/mcb.13.12.7418-7428.1993; Sun XJ Crimmins DL Myers MG Jr Miralpeix M White MF Pleiotropic insulin signals are engaged by multisite phosphorylation of IRS-1 Mol Cell Biol 1993 13 7418 7428 7504175 10.1128/mcb.13.12.7418-7428.19 || [110]; PMID 9756938; doi:10.1074/jbc.273.41.26908; Myers MG Jr Mendez R Shi P Pierce JH Rhoads R White MF The COOH-terminal tyrosine phosphorylation sites on IRS-1 bind SHP-2 and negatively regulate insulin signaling J Biol Chem 1998 273 26908 26914 9 ||| ref 107 (IRS-1 Y896 also 108) ||| ref 95, 108, 110 = [95]; PMID 9422724; doi:10.1074/jbc.273.2.729; Ottinger EA Botfield MC Shoelson SE Tandem SH2 domains confer high specificity in tyrosine kinase signaling J Biol Chem 1998 273 729 735 9422724 10.1074/jbc.273.2.729 || [108]; PMID 7504175; doi:10.1128/mcb.13.12.7418-7428.1993; Sun XJ Crimmins DL Myers MG Jr Miralpeix M White MF Pleiotropic insulin signals are engaged by multisite phosphorylation of IRS-1 Mol Cell Biol 1993 13 7418 7428 7504175 10.1128/mcb.13.12.7418-7428.19 || [110]; PMID 9756938; doi:10.1074/jbc.273.41.26908; Myers MG Jr Mendez R Shi P Pierce JH Rhoads R White MF The COOH-terminal tyrosine phosphorylation sites on IRS-1 bind SHP-2 and negatively regulate insulin signaling J Biol Chem 1998 273 26908 26914 9; details: ref 107 (IRS-1 Y896 also 108); read-out: Relative affinity (IC50); cited from earlier work
T1 sequence (Q06124 6-102 limits assumed): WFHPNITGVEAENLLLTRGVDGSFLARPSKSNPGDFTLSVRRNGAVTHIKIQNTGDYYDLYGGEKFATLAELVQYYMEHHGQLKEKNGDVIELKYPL

Ptpn11_N SH2 domain [2] = biological target: T1, Ptpn11_N SH2 domain; assay: SPOT peptide array; type: binding; details: GST-SH2 0.25 μM, membrane-bound peptide, 1 mM DTT, LiCor read-out
Description: as §1, §2

[3] = spot intensity as factor of array mean

Substance	Other SH2 domains bound (additional array-positive SH2 domains) (panel of 50 SH2 domains)	Array positive (Grb2 SH2 domain)	further results
TRDIpYETDpYpYR [triply phosphorylated peptide, InsR (Y1185,89,90)]	Crk, Crkl, Fer, Grb7, PI3K1_C		Array positive (Plcγ-C SH2 domain): Yes (Array-positive binding was ascribed to interactions with intensities greater than three times the array mean)
ATDDpYAVPPPR [11-mer phosphotyrosine peptide, p62DOK1 (Y409), similar to p130Cas (Y410)]	Crkl, Hck		Array positive (Crk SH2 domain): Yes (Array-positive binding was ascribed to interactions with intensities greater than three times the array mean)
ALLNpYENLPSL [11-mer phosphotyrosine peptide, FRS2 (Y349)]	Abl1, Abl2, Gads, Grap, Grb2, Grb7, PI3K1_C, Sh2d2a, Sh3bp2	Yes (Array-positive binding was ascribed to interactions with intensities greater than three times the array mean)	
SDDDpYDDVDIP [11-mer phosphotyrosine control peptide, HPK1 (Y379), reference compound]	Fer, SLNK (similar to BLNK and SLP76)		Array positive (Nck1 SH2 domain): Yes (Array-positive binding was ascribed to interactions with intensities greater than three times the array mean)
QVHTpYVNTTGV [11-mer phosphotyrosine peptide, FRS2 (Y196)]	Abl2, Gads, Grap, PI3K1_C	Yes (Array-positive binding was ascribed to interactions with intensities greater than three times the array mean)	
DLSApYASISFQ (DLSAYASISFQ) [11-mer phosphotyrosine peptide, IRS-1 (Y1229)]			IC50 (Ptpn11_N SH2 domain [1]): 25 ± 4.2 µM
DPNGpYMMMSPS (DPNGYMMMSPS) [11-mer phosphotyrosine peptide, IRS-1 (Y662)]			IC50 (Ptpn11_N SH2 domain [1]): 96 ± 13 µM
RQLNpYIQVDLE [11-mer phosphotyrosine peptide, FRS2 (Y436)]	Itk, Mist, PLCγ_C, Rasa1_N, Shb, Shd, She, Syk_C		Array positive (Ptpn11_N SH2 domain [2]): Yes (Array-positive binding was ascribed to interactions with intensities greater than three times the array mean)
PMHNpYVNTENV [11-mer phosphotyrosine peptide, FRS2 (Y392)]	Gads, Grap	Yes (Array-positive binding was ascribed to interactions with intensities greater than three times the array mean)	
DDPSpYVNVQNL [11-mer phosphotyrosine control peptide, ShcA (Y426), reference compound]	Gads, Grap	Yes (Array-positive binding was ascribed to interactions with intensities greater than three times the array mean)	
PQDIYDVPPVR [11-mer peptide, P130Cas (Y249)]	Crkl, Zap70_N		Array positive (Crk SH2 domain): Yes (Array-positive binding was ascribed to interactions with intensities greater than three times the array mean)
EDLSpYGDVPPG [11-mer phosphotyrosine peptide, IRS-1 (Y151)]	1.76X Mean Abl1, Blk, Fyn, Lck, Lyn, Sh2d1b, Shc1, Ship2, Slnk, Yes		Array positive (Nck1 SH2 domain): No (Peptide spots with average intensity values between 1X-3X the array mean were defined as ‘indeterminate’. Those with intensities below 1X mean were defined as array negative); Peptide array intensity (X mean) (Nck1 SH2 domain; [3]): 1.76 X Mean
NKLVpYENINGL [11-mer phosphotyrosine peptide, FRS2 (Y306)]	Grap, Grb7, Sh2d2a	Yes (Array-positive binding was ascribed to interactions with intensities greater than three times the array mean)	
EQDEYDIPRHL [11-mer peptide, p130Cas (Y234)]	Brk, Crkl, Fyn, Lck, Lyn, Shc1, Yes		Array positive (Crk SH2 domain): Yes (Array-positive binding was ascribed to interactions with intensities greater than three times the array mean)
GGEFpYGYMTMD [11-mer phosphotyrosine peptide, IRS-2 (Y540)]	Dapp1, Grb7		Array positive (Plcγ-C SH2 domain): Yes (Array-positive binding was ascribed to interactions with intensities greater than three times the array mean)
PNGDpYLNVSPS [11-mer phosphotyrosine peptide, IRS-2 (Y766)]	Sh2d1b, Vav1	Yes (Array-positive binding was ascribed to interactions with intensities greater than three times the array mean)	
NPGFpYVEANPM [11-mer phosphotyrosine peptide, PLCγ1 (Y783)]	PLCγ_C at 1.03X mean; Zap70_N		Array positive (Plcγ-C SH2 domain): No (Peptide spots with average intensity values between 1X-3X the array mean were defined as ‘indeterminate’. Those with intensities below 1X mean were defined as array negative); Peptide array intensity (X mean) (Plcγ-C SH2 domain; [3]): 1.03 X Mean
